In BindingDB's records for patent US20230348450 (Genzyme, 2023) one finds IC50 data, which are given here for ten compounds.

As a reminder, the IC50 is the concentration needed to halve the response being measured. Low values mean inhibition by little substance, high ones a need for much substance.

“And” between values parts separate entries of the source, which are not always exact repeats. Identical values can stand only once.

This experiment addresses T1, Bisphosphoglycerate mutase (Homo sapiens, UniProt P07738).
T1 sequence (P07738 whole entry): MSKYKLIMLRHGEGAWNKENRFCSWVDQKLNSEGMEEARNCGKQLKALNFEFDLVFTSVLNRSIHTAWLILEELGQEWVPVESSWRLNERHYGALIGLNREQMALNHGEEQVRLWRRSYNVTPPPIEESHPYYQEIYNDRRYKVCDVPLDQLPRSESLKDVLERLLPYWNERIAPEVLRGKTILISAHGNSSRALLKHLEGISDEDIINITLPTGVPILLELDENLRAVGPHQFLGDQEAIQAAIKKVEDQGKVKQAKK
Kind of experiment: BPGM Synthase Assay. How it is done:
To the assay plate was added Enzyme Solution (20 uL) to columns 2-22 and 24 of the assay plate. To columns 1 and 23 was added GAPDH Solution (20 uL). A separate compound plate was prepared at the desired concentrations and all wells were normalized with 5% DMSO. The compound plate was incubated for 30 minutes at RT. Next, the substrate solution (20 μL) was dispensed to all reaction wells and the plate was incubated for 60 minutes at RT. Koningic acid (1 μL) was added and the plate was incubated for 10 minutes at RT. […] Next, Resazurin Solution (10 μL) was added to all reaction wells and the plate was incubated for 30 minutes at RT.
With `Cc1nc(COc2ccc(F)cn2)sc1-c1cccc(-c2ccc(C(=O)O)c(O)c2)c1` [US20230348450, Example 1], the 50% inhibitory concentration (IC50) was 1500 nM and 1000 nM.

Compound `Cc1nc(COc2ncccn2)sc1-c1cccc(-c2ccc(S(=O)(=O)CC(=O)O)cc2)n1` [US20230348450, Example 2] came in with an IC50 of 146 nM.

Consider `Cc1nc(COc2ncccn2)sc1-c1cccc(-c2cc(C(=O)O)cs2)n1` [US20230348450, Example 3], for which the concentration for half-maximal inhibition (IC50) was 260 nM and 180 nM.

For `Cc1nc(COc2ccccn2)sc1-c1cccc(-c2ccc(C(=O)O)c(O)c2)c1` [US20230348450, Example 4], the concentration for half-maximal inhibition (IC50) is 590 nM and 710 nM.

With `Cc1nc(COc2ncccn2)sc1-c1cccc(-c2ccc(C(=O)O)c(O)c2)n1` [US20230348450, Example 6], the concentration for half-maximal inhibition (IC50) amounted to 70 nM.

On to `Cc1nc(COCC(=O)N(C)C)sc1-c1csc(-c2cc(O)c(C(=O)O)cc2F)n1` [US20230348450, Example 7], for which half-maximal inhibition (IC50) required 60 nM. This IC50 and that of the compound before are within 1.5-fold of each other.

In turn, `COC(=O)NCc1nc(C)c(-c2nsc(-c3cc(O)c(C(=O)O)cc3F)n2)s1` [US20230348450, Example 8] came in with an IC50 of 95 nM.

In turn, `COC(=O)NCc1nc(C)c(-c2cccc(-c3ccc(C(=O)O)c(O)c3)n2)s1` [US20230348450, Example 9] showed an IC50 of 317 nM.

In the case of `CC(=O)NCc1nc(C)c(-c2csc(-c3cc(O)c(C(=O)O)cc3F)n2)s1` [US20230348450, Example 10], the IC50 was 95 nM.

On to `COC(=O)NCc1nc(C)c(-c2csc(-c3cc(O)c(C(=O)O)cc3F)n2)s1` [US20230348450, Example 209], for which the IC50 was 63 nM and 59 nM.
